Several values for one entry are separate records, joined by “and”; a condition that tells them apart may be missing. Equal entries are not always repeated. Where two headings read alike, the source gives them in different places. Bounds are passed on as bounds.

The subject of data set [1] is Helicoverpa armigera (Hübner). The experiment in a line: Insecticidal activity against Helicoverpa armigera (Hübner). In kind it is in vivo. Conditions: for pest or weed control at 100 µg/mL: Helicoverpa armigera, read-out: insecticidal activity, Helicoverpa armigera (Hübner).
Data set [2] relates to Cercospora arachidicola. The experiment in a line: Fungicidal activity, fungicide growth rate method, CA. In kind it is cell-based. Conditions: 50 μg/mL; for inhibition at 50 µg/mL: Mycosphaerella arachidis, read-out: fungicidal activity (growth inhibition rate), CA.
In data set [3] the test system is Rhizoctonia cerealis. The data set is described as follows: Fungicidal activity, fungicide growth rate method, RC. In kind it is cell-based. The conditions noted are these: 50 μg/mL; for inhibition at 50 µg/mL: Ceratobasidium cereale, read-out: fungicidal activity (growth inhibition rate), RC.
Data set [4] has as its system Ostrinia furnacalis. The data set is described as follows: Insecticidal activity against Ostrinia furnacalis. In kind it is in vivo. Conditions: for pest or weed control at 100 µg/mL: Ostrinia furnacalis, read-out: insecticidal activity, Ostrinia furnacalis.
The test system of data set [5] is Pellicularia sasakii. The experiment in a line: Fungicidal activity, fungicide growth rate method, PS. In kind it is cell-based. Conditions: 50 μg/mL; for inhibition at 50 µg/mL: read-out: fungicidal activity (growth inhibition rate), PS.
Data set [6] has as its system Botrytis cinerea. The data set is described as follows: Fungicidal activity, fungicide growth rate method, BC. Conditions: 50 μg/mL; for inhibition at 50 µg/mL: Botrytis cinerea, read-out: fungicidal activity (growth inhibition rate), BC. In kind it is cell-based.
Data set [7] deals with Caenorhabditis elegans. The data set is described as follows: Insecticidal activity against Caenorhabditis elegans. The conditions noted are these: Caenorhabditis elegans, read-out: insecticidal activity, Caenorhabditis elegans. In kind it is in vivo.
In data set [8] the test system is Alternaria solani. The experiment in a line: Fungicidal activity, fungicide growth rate method, AS. Conditions: 50 μg/mL; for inhibition at 50 µg/mL: Alternaria solani, read-out: fungicidal activity (growth inhibition rate), AS. In kind it is cell-based.
For data set [9], the system named is Phytophthora infestans (Mont.) de Bary. The data set is described as follows: microbe, parasite or virus in culture. In kind it is cell-based. Conditions: for inhibition at 50 µg/mL: Phytophthora infestans, read-out: fungicidal activity (growth inhibition rate), PI, 50 μg/mL.
Data set [10] has as its system Sclerotinia sclerotiorum. The experiment in a line: Fungicidal activity, fungicide growth rate method, SS. In kind it is cell-based. The conditions noted are these: 50 μg/mL; for inhibition at 50 µg/mL: Sclerotinia sclerotiorum.
Data set [11] deals with wheat Gibberella zeae. The data set is described as follows: microbe, parasite or virus in culture. Conditions: for inhibition at 50 µg/mL: Fusarium graminearum, read-out: fungicidal activity (growth inhibition rate), GZ, 50 μg/mL. In kind it is cell-based.
The subject of data set [12] is Mythimna separate (Walker). The data set is described as follows: Insecticidal activity against Mythimna separate (Walker). In kind it is in vivo. The conditions noted are these: for pest or weed control at 100 µg/mL: Mythimna, read-out: insecticidal activity, Mythimna separate (Walker).
The test system of data set [13] is Apis mellifera ligustica Spin. Conditions: for Death number after 24 h / Death number after 48 h: per replicate of 10 bees.
The subject of data set [14] is Physalospora piricola. The data set is described as follows: Fungicidal activity, fungicide growth rate method, PP. In kind it is cell-based. Conditions: 50 μg/mL; for inhibition at 50 µg/mL: read-out: fungicidal activity (growth inhibition rate), PP.

Regarding `CCOC(=O)C1C(=O)O[C@]23CC=CC[C@@H]2[C@H](OC)C[C@]13O` (stereo partly shown) [Zyj06-187], the pest or weed control at 100 µg/mL in [1] (100 μg/mL) was 0%; in data set [4] (100 μg/mL) it was 0%; in data set [7] (100 μg/mL), 8%; in data set [12] (100 μg/mL) it was 10%. In addition, the inhibition at 50 µg/mL in [2] was more than 50%; in data set [3] it was 50%; in data set [5] it was 0%; in [6], 34%; in data set [8], 14%; in data set [9], 31%. In addition, the inhibition at 50 µg/mL in data set [10] is 43%; in [11], more than 50%. In addition, the “Death rate after 48 h (%)” value in data set [13] (dosage 6.08 μg a.i./bee) turned out to be 0%; in data set [13] (dosage 10.6 μg a.i./bee), 10.0%. Besides, the “Death number after 24 h” value in data set [13] (dosage 6.08 μg a.i./bee) and in [13] (dosage 10.6 μg a.i./bee) was 0 in each case. Further, the “Death number after 48 h” value in data set [13] (dosage 6.08 μg a.i./bee) was determined as 0; in data set [13] (dosage 10.6 μg a.i./bee), 1.

As to `CCOC(=O)C[C@@H]1C[C@]2(O)CC(=O)O[C@@]23CC=CC[C@H]13` [Zyj06-128], the inhibition at 50 µg/mL was 27% in [2]; more than 70% in data set [3]; 20% in data set [5]; 25% in data set [6]; 7% in [9]; 0% in data set [10]. Also, the inhibition at 50 µg/mL in [14] came to 8%. Moreover, in data set [7] (100 μg/mL), the pest or weed control at 100 µg/mL is more than 30%.

With `C=CC[C@@H]1C[C@]2(O)CC(O)O[C@@]23C[C@H]2O[C@H]2C[C@H]13` (stereo partly shown) [Zyj07-64], the pest or weed control at 100 µg/mL came to 10% in data set [1] (100 μg/mL), 5% in [4] (100 μg/mL), 8% in data set [7] (100 μg/mL) and 20% in data set [12] (100 μg/mL). Further, the inhibition at 50 µg/mL is more than 70% in data set [3]; more than 60% in [5]; 41% in data set [6]; more than 60% in data set [8]; 17% in data set [9]; 45% in [10]. For the same molecule, the inhibition at 50 µg/mL in [11] came to 73%. Moreover, the entries for the “Death rate after 48 h (%)” value in [13] (dosage 10.0 μg a.i./bee) and in data set [13] (dosage 15.5 μg a.i./bee) were 15.0% and 10.0%, respectively. Further, the “Death number after 24 h” value was 0 in data set [13] (dosage 10.0 μg a.i./bee); 0 and 1 in data set [13] (dosage 15.5 μg a.i./bee). Moreover, the “Death number after 48 h” value was 1 and 2 in [13] (dosage 10.0 μg a.i./bee); 0 and 2 in data set [13] (dosage 15.5 μg a.i./bee).

With `C=CC[C@@H]1C[C@]2(O)CC(=O)O[C@@]23CC=CC[C@H]13` [Zyj06-186], the pest or weed control at 100 µg/mL amounted to 0% in data set [1] (100 μg/mL), 0% in data set [4] (100 μg/mL), 15% in data set [7] (100 μg/mL) and 0% in [12] (100 μg/mL). In addition, the inhibition at 50 µg/mL in [2] is 46%; in [3] it was 41%; in data set [5], 6%; in data set [6], 49%; in data set [8], 7%; in data set [9], 4%. Further, the inhibition at 50 µg/mL is more than 50% in [10], 11% in data set [14] and 21% in data set [11].

On to `C=C(C)C1CC(=O)[C@@]2(O)CC=CC[C@H]12` (stereo partly shown) [Zyj06-166], for which the pest or weed control at 100 µg/mL in [1] (100 μg/mL) was determined as 0%; in data set [4] (100 μg/mL), 0%; in [7] (100 μg/mL) it was 5%; in data set [12] (100 μg/mL), 0%. In addition, the inhibition at 50 µg/mL in [2] was more than 50%; in data set [3], 0%; in data set [5] it was 18%; in data set [6], 36%; in data set [9], 25%; in [10] it was 17%. Moreover, the inhibition at 50 µg/mL in [14] is 38%; in data set [11], 27%. The “Death rate after 48 h (%)” value in data set [13] (dosage 9.93 μg a.i./bee) was determined as 0%; in data set [13] (dosage 19.7 μg a.i./bee) it was 10.0%. Further, the “Death number after 24 h” value in data set [13] (dosage 9.93 μg a.i./bee) and in [13] (dosage 19.7 μg a.i./bee) was 0 in each case. The “Death number after 48 h” value in data set [13] (dosage 9.93 μg a.i./bee) is reported as 0; in [13] (dosage 19.7 μg a.i./bee) it was 1.

Take `C=CC[C@@H]1C[C@]2(O[Si](C)(C)CC=C)CCO[C@@]23C[C@H](O[Si](C)(C)CC=C)CC[C@H]13` [Zyj07-46]: the pest or weed control at 100 µg/mL in data set [1] (100 μg/mL) amounted to 5%; in data set [4] (100 μg/mL), 0%; in data set [7] (100 μg/mL) it was 10%; in data set [12] (100 μg/mL) it was 20%. Further, the inhibition at 50 µg/mL in data set [2] is 14%; in data set [3], 0%; in data set [5], 22%; in [6], more than 50%; in [8], 8%; in data set [9], 21%. The inhibition at 50 µg/mL was more than 50% in data set [10], 21% in data set [14] and 3% in data set [11].

Turning to `C=CC[C@@H]1C[C@]2(O[Si](C)(C)CC=C)CCO[C@@]23CC[C@H](O[Si](C)(C)CC=C)C[C@@H]13` [Zyj07-48], the pest or weed control at 100 µg/mL in data set [1] amounted to 0%; in data set [4], 0%; in data set [7], 25%; in [12], 0%. The inhibition at 50 µg/mL in [2] was 35%; in data set [3], 0%; in data set [5], 14%; in data set [6] it was more than 50%; in [8], 0%; in data set [9], 19%. For the same molecule, the inhibition at 50 µg/mL in [10] is more than 50%; in data set [14], 13%; in data set [11] it was 7%. For the same molecule, the “Death rate after 48 h (%)” value in data set [13] (dosage 9.89 μg a.i./bee) amounted to 5.0%; in [13] (dosage 19.8 μg a.i./bee), 0%. Further, the “Death number after 24 h” value in data set [13] (dosage 9.89 μg a.i./bee) and in data set [13] (dosage 19.8 μg a.i./bee) was 0 each time. In addition, the “Death number after 48 h” value in [13] (dosage 9.89 μg a.i./bee) is 0 and 1; in data set [13] (dosage 19.8 μg a.i./bee), 0.

Take `C=C(C)[C@@H]1C[C@]2(O)CC(=O)O[C@@]23CC=CC[C@H]13` [Zyj06-175]: the inhibition at 50 µg/mL in data set [2] stood at 33%; in data set [3], 61%; in data set [5] it was 5%; in [6], 25%; in [9] it was 0%; in data set [10], 11%. The inhibition at 50 µg/mL in data set [14] turned out to be 8%; in data set [11], 14%. The pest or weed control at 100 µg/mL in data set [7] (100 μg/mL) stood at 15%.

Consider `C=C(C)C1C[C@]2(O)C(C(=O)OCC)C(=O)O[C@@]23CC=CC[C@H]13` (stereo partly shown) [Zyj06-167], for which the inhibition at 50 µg/mL in [2] was 26%; in data set [3], 59%; in data set [5], 24%; in data set [6], 13%; in [9] it was 0%; in data set [10], 9%. In addition, the inhibition at 50 µg/mL was 0% in data set [14] and 46% in data set [11]. Moreover, the pest or weed control at 100 µg/mL in data set [7] (100 μg/mL) was determined as 25%.

Take Ryanodine [reference compound]: the “insecticidal activity, Helicoverpa armigera (Hübner)” value in [1] (100 μg/mL) is 100%. For the same molecule, the “fungicidal activity (growth inhibition rate), CA” value in data set [2] is 10%. For the same molecule, the “fungicidal activity (growth inhibition rate), RC” value in data set [3] was determined as 50%. The “insecticidal activity, Ostrinia furnacalis” value in data set [4] (100 μg/mL) was determined as 100%. Also, in data set [5], the “fungicidal activity (growth inhibition rate), PS” value was 32%. Further, in data set [6], the “fungicidal activity (growth inhibition rate), BC” value is reported as 25%. The “fungicidal activity (growth inhibition rate), AS” value in data set [8] worked out at 25%. In addition, the “fungicidal activity (growth inhibition rate), PI” value in data set [9] (50 μg/mL) is on record as 30%. Further, in data set [10], the “fungicidal activity (growth inhibition rate), SS” value is 25%. Also, the “fungicidal activity (growth inhibition rate), PP” value in [14] came out at 25%. In addition, the “fungicidal activity (growth inhibition rate), GZ” value in data set [11] (50 μg/mL) is listed as 20%. In addition, the “insecticidal activity, Mythimna separate (Walker)” value in data set [12] (100 μg/mL) was 100%.

The values above are taken from patent US11716992B2, “5A5B6C tricyclic spirolactone derivative, preparation method therefor and use thereof” (NANKAI UNIVERSITY, priority 2017, dated 2023).
